Target: Bcl-xL (Homo sapiens (Human), UniProt Q07817)
Experiment: Time Resolved-Fluorescence Resonance Energy Transfer (TR-FRET) binding assay, competition with F-Bak
Conditions: not given

Sequence of Bcl-xL (Q07817 whole entry): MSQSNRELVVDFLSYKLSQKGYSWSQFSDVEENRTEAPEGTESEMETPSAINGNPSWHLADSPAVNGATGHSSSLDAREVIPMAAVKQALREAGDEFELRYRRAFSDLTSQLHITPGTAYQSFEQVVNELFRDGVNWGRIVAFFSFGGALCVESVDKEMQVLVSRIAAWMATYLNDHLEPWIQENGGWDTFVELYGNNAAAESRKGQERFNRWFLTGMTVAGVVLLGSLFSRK

Work on `Cc1c(-c2ccc(N3CCc4cccc(C(=O)Nc5nc6ccccc6s5)c4C3)nc2C(=O)O)cccc1N(C)C1CCCC(C)(C)C1` (centres unmarked) [Example 159, 6-[8-(1,3-benzothiazol-2-ylcarbamoyl)-3,4-dihydroisoquinolin-2(1H)-yl]-3-{3-[(3,3-dimethylcyclohexyl)(methyl)amino]-2-methylphenyl}pyridine-2-carboxylic acid] yielded a Ki of 0.2 nM.

Same assay, conditions: competition with F-Bak probe, GST-Bcl-xL; read-out: TR-FRET binding Bcl-xL Ki

In the case of `Cc1[nH]c(C#N)c(CC2CCCCC2)c1-c1ccc(N2CCc3cccc(C(=O)Nc4nc5ccccc5s4)c3C2)nc1C(=O)NS(C)(=O)=O` [Example 171, N-(1,3-benzothiazol-2-yl)-2-{5-[5-cyano-4-(cyclohexylmethyl)-2-methyl-1H-pyrrol-3-yl]-6-[(methylsulfonyl)carbamoyl]pyridin-2-yl}-1,2,3,4-tetrahydroisoquinoline-8-carboxamide], the Ki is reported as less than 0.1 nM.

Tested on: FL5.12 cells transfected with Bcl-XL
Experiment: FL5.12 Cellular Assay (cell viability, CellTiter-Glo)
Assay type: cell-based, mouse
Conditions: Mus musculus, FL5.12, 24 h, read-out: FL5.12 Bcl-xL, IL3, EC 50 (nM)
Description: For assaying the compound activity, the cells were exchanged into an IL-3-depleted deprivation media, which was identical to the growth media except for the absence of FBS and WEHI-3B conditional media, for 2 days. Then the cells were exchanged to 3% FBS assay media (RPMI with 2 mM glutamine, 1% 100 mM sodium pyruvate, 2% 1 M HEPES, 4 μL/L of β-mercaptoethanol, 1% penicillin-streptomycin, 3% FBS). Compounds in series dilutions were added, and the cells were cultured for 24 hours. […] Cell viability was assayed using the CellTiter-Glo assay (Promega Corp., Madison, Wis.) according to the manufacturer instructions. Individual determinations were the result of duplicate values.

Point of comparison: `Cc1[nH]c(C#N)c(CC2CCCCC2)c1-c1ccc(N2CCc3cccc(C(=O)Nc4nc5ccccc5s4)c3C2)nc1C(=O)NS(C)(=O)=O` [Example 171, N-(1,3-benzothiazol-2-yl)-2-{5-[5-cyano-4-(cyclohexylmethyl)-2-methyl-1H-pyrrol-3-yl]-6-[(methylsulfonyl)carbamoyl]pyridin-2-yl}-1,2,3,4-tetrahydroisoquinoline-8-carboxamide], EC50 97 nM. Against it:
- Cc1c(OC2CCCC(C)(C)C2)cccc1-c1ccc(N2CCc3cccc(C(=O)Nc4nc5ccccc5s4)c3C2)nc1C(=O)O (centres unmarked) [Example 121, 6-[8-(1,3-benzothiazol-2-ylcarbamoyl)-3,4-dihydroisoquinolin-2(1H)-yl]-3-{3-[(3,3-dimethylcyclohexyl)oxy]-2-methylphenyl}pyridine-2-carboxylic acid] — within 1.5-fold, 87 nM

Same assay, conditions: mouse FL5.12 cells transfected with Bcl-XL, IL-3-depleted, 3% FBS assay media, 24 hours; read-out: FL5.12 Bcl-xL, IL3, EC 50

Point of comparison: `Cc1c(-c2ccc(N3CCc4cccc(C(=O)Nc5nc6ccccc6s5)c4C3)nc2C(=O)O)cnn1C[C@@H]1CC[C@@H]2C[C@H]1C2(C)C` [Example 85, 6-[8-(1,3-benzothiazol-2-ylcarbamoyl)-3,4-dihydroisoquinolin-2(1H)-yl]-3-(1-{[(1R,2R,5R)-6,6-dimethylbicyclo[3.1.1]hept-2-yl]methyl}-5-methyl-1H-pyrazol-4-yl)pyridine-2-carboxylic acid], EC50 12 nM. Against it:
- O=C(Nc1nc2ccccc2s1)c1cccc2c1CN(c1ccc(-c3cnn(Cc4cccnc4)c3)c(C(=O)O)n1)CC2 [Example 3, 6-[8-(1,3-benzothiazol-2-ylcarbamoyl)-3,4-dihydroisoquinolin-2(1H)-yl]-3-[1-(pyridin-3-ylmethyl)-1H-pyrazol-4-yl]pyridine-2-carboxylic acid] — higher, > 1000 nM
- COc1ccc2nc(NC(=O)c3cccc4c3CN(c3ccc(-c5cnn(Cc6ccccc6)c5)c(C(=O)O)n3)CC4)sc2c1 [Example 11, 3-(1-benzyl-1H-pyrazol-4-yl)-6-{8-[(6-methoxy-1,3-benzothiazol-2-yl)carbamoyl]-3,4-dihydroisoquinolin-2(1H)-yl}pyridine-2-carboxylic acid] — higher, > 1000 nM
- COc1cccc(Cn2cc(-c3ccc(N4CCc5cccc(C(=O)Nc6nc7ccccc7s6)c5C4)nc3C(=O)O)cn2)c1 [Example 14, 6-[8-(1,3-benzothiazol-2-ylcarbamoyl)-3,4-dihydroisoquinolin-2(1H)-yl]-3-[1-(3-methoxybenzyl)-1H-pyrazol-4-yl]pyridine-2-carboxylic acid] — higher, > 1000 nM
- O=C(Nc1nc2ccccc2s1)c1cccc2c1CN(c1ccc(-c3cnn(Cc4ccc(Cl)cc4)c3)c(C(=O)O)n1)CC2 [Example 15, 6-[8-(1,3-benzothiazol-2-ylcarbamoyl)-3,4-dihydroisoquinolin-2(1H)-yl]-3-[1-(4-chlorobenzyl)-1H-pyrazol-4-yl]pyridine-2-carboxylic acid] — higher, > 1000 nM
- O=C(Nc1nc2ccccc2s1)c1cccc2c1CN(c1ccc(-c3cnn(Cc4cccc(O)c4)c3)c(C(=O)O)n1)CC2 [Example 17, 6-[8-(1,3-benzothiazol-2-ylcarbamoyl)-3,4-dihydroisoquinolin-2(1H)-yl]-3-[1-(3-hydroxybenzyl)-1H-pyrazol-4-yl]pyridine-2-carboxylic acid] — higher, > 1000 nM
- O=C(Nc1nc2cccc(Cl)c2s1)c1cccc2c1CN(c1ccc(-c3cnn(Cc4ccccc4)c3)c(C(=O)O)n1)CC2 [Example 21, 3-(1-benzyl-1H-pyrazol-4-yl)-6-{8-[(7-chloro-1,3-benzothiazol-2-yl)carbamoyl]-3,4-dihydroisoquinolin-2(1H)-yl}pyridine-2-carboxylic acid] — higher, > 1000 nM
- N#Cc1cccc(Cn2cc(-c3ccc(N4CCc5cccc(C(=O)Nc6nc7ccccc7s6)c5C4)nc3C(=O)O)cn2)c1 [Example 24, 6-[8-(1,3-benzothiazol-2-ylcarbamoyl)-3,4-dihydroisoquinolin-2(1H)-yl]-3-[1-(3-cyanobenzyl)-1H-pyrazol-4-yl]pyridine-2-carboxylic acid] — higher, > 1000 nM
- O=C(Nc1nc2ccccc2s1)c1cccc2c1CN(c1ccc(-c3cnn(Cc4ccccn4)c3)c(C(=O)O)n1)CC2 [Example 26, 6-[8-(1,3-benzothiazol-2-ylcarbamoyl)-3,4-dihydroisoquinolin-2(1H)-yl]-3-[1-(pyridin-2-ylmethyl)-1H-pyrazol-4-yl]pyridine-2-carboxylic acid] — higher, > 1000 nM
- O=C(Nc1nc2ccccc2s1)c1cccc2c1CN(c1ccc(-c3cnn(CCc4ccccc4)c3)c(C(=O)O)n1)CC2 [Example 38, 6-[8-(1,3-benzothiazol-2-ylcarbamoyl)-3,4-dihydroisoquinolin-2(1H)-yl]-3-[1-(2-phenylethyl)-1H-pyrazol-4-yl]pyridine-2-carboxylic acid] — higher, > 1000 nM
- CC(C)(C)Cn1cc(-c2ccc(N3CCc4cccc(C(=O)Nc5nc6ccccc6s5)c4C3)nc2C(=O)O)cn1 [Example 59, 6-[8-(1,3-benzothiazol-2-ylcarbamoyl)-3,4-dihydroisoquinolin-2(1H)-yl]-3-[1-(2,2-dimethylpropyl)-1H-pyrazol-4-yl]pyridine-2-carboxylic acid] — higher, > 1000 nM
- COCCCC1(Cn2ncc(-c3ccc(N4CCc5cccc(C(=O)Nc6nc7ccccc7s6)c5C4)nc3C(=O)O)c2C)CCCCC1 [Example 97, 6-[8-(1,3-benzothiazol-2-ylcarbamoyl)-3,4-dihydroisoquinolin-2(1H)-yl]-3-(1-{[1-(3-methoxypropyl)cyclohexyl]methyl}-5-methyl-1H-pyrazol-4-yl)pyridine-2-carboxylic acid] — lower, < 1 nM
- O=C(Nc1nc2ccccc2s1)c1cccc2c1CN(c1ccc(-c3cccc(Oc4ccccc4)c3)c(C(=O)O)n1)CC2 [Example 103, 6-[8-(1,3-benzothiazol-2-ylcarbamoyl)-3,4-dihydroisoquinolin-2(1H)-yl]-3-(3-phenoxyphenyl)pyridine-2-carboxylic acid] — higher, > 1000 nM
